In paper PMC6305398, “Red Fluorescent Chlamydia trachomatis Applied to Live Cell Imaging and Screening for Antibacterial Agents” (Frontiers in Microbiology, 2018):
Converted amounts (≈) assume the structure as drawn. Like-named read-outs stand apart in the source and are kept apart here.

Legend:
[1] = tested on: mCherry expressing C. trachomatis serovar L2 454/Bu; test: Primary screen of natural compound library, Chlamydia inclusion count (mCherry imaging and FITC immunostaining in duplicate plates); format: cell-based, Chlamydia trachomatis; details: for inhibition at 10 µM: Chlamydia trachomatis, 48 hpi, HeLa cells, vs DMSO control
Experimental: A general and more detailed protocol for the screening assay is provided in (Supplementary Data Sheet 1) and an overview of the screening method is given in Figure 3. Since inhalation of C. trachomatis aerosols can cause laboratory acquired infections (Sewell, [1995]), all procedures involving handling of live infection in open plates were performed manually inside a class II safety cabinet using 8-channel electronic pipets (Rainin E4 XLS, Mettler Toledo, Barcelona, Spain) and an enclosed aspiration system (Intergra VacuSafe, Zizers, Switzerland).
The primary screen of the 349 open access compound library was performed using the mCherry expressing C. trachomatis serovar L2 454/Bu in clear, flat 96-well plates (Nunc, Delta surface, Thermo Fischer Scientific). The primary screen was done in duplicates in separated plates; one plate was used for mCherry imaging and the other for FITC immunostaining. Cells were seeded at a density of 10,000 cells per well in 100 μl DMEM media 1 day prior to infection in culture media. Chlamydia infection was performed in 30 μl HBSS as described above with a MOI of 0.6 during 1 h at 37°C, 5% CO2. Compounds were diluted to 10 μM in DMEM with a final DMSO concentration of 0.5% and 100 μl per well was added after aspiration of HBSS. The plates were incubated for an additional 47 h at 37°C, 5% CO2 prior to imaging. One of the duplicate plates was used for mCherry imaging and one for FITC immunostaining. For mCherry imaging, HeLa cell nuclei were first stained by addition of 10 μl […] Hoechst per well and incubated at 37°C with 5% CO2 for 20 min. The infected cells were fixed in 4% paraformaldehyde (PFA) for 15 min and washed in PBS before image acquisition. Although fixation was not necessary for the analysis, it inactivated the infectious Chlamydia and enabled later analysis after storage at 4°C. For FITC immunostaining, cells were fixed in 150 μl methanol per well for 10 min, blocked in 1% BSA, 0.25% Tween-20 in PBS and incubated with 1:1,000 polyclonal rabbit anti-chlamydial serum in blocking buffer (Marwaha et al., [2014]). A FITC-conjugated donkey anti-rabbit antibody (Jackson ImmunoResearch) and 1 μg/ml Hoechst staining was used for staining followed by washing with blocking buffer. Images of nuclei (Hoechst-ex386/23 nm) and Chlamydia inclusions (FITC: ex485/20 nm; mCherry: ex549/15 nm) were acquired in the ArrayScan with the 10x objective and counted with the built in software. Chlamydia inclusions in DMSO control wells were used to determine an inclusion size cutoff to exclude small underdeveloped inclusions as well as fluorescent artifacts from the analyses.

in vitro = format: cell-based; details: human, 48 h, percent of DMSO control; for viability at 25 µM: read-out: HeLa cell viability at 25 μM (%); for viability at 50 µM: read-out: HeLa cell viability at 50 μM (%) (converted)
Experimental: (§1) HeLa299 cells were inoculated into clear, flat 96-well plates (Nunc, Delta surface, Thermo Fischer Scientific) with a density of 7,000 cells per well and cultured overnight at 37°C with 5% CO2 in […] supplemented with 10% FBS and 2 mM L-glutamine. The following day, the RPMI was replaced with DMEM without phenol red (Life Technologies, Carlsbad, CA, USA) containing 0.5% DMSO with or without test compounds at 25 and 50 μM concentrations incubated at 37°C with 5% CO2 for 48 h. At least three replicate wells for each compound concentration were tested. Wells without cells were used as blank controls. Following this incubation with compounds, cells were washed with DMEM to remove remaining colored compounds and fresh DMEM without phenol red was added before the XTT Cell Proliferation Assay kit was used according to the manufacturer's instructions (ATCC, Manassas, VA, USA). Briefly, activation reagent and XTT reagent were thawed at 37°C, then mixed in a 1:50 ratio with enough volume to add 50 μL to each well. The plates were placed in the 37°C incubator for 2.5 h. The absorbance of each well was then read at 475 nm and 660 nm with a Tecan Infinite m200 plate reader (Tecan, Männedorf, Switzerland). To analyze the data, the 660 nm reading was subtracted from the 475 nm reading to help eliminate non-specific readings from the assay results. Average blank control-well readings were subtracted from those containing cells. Final readings from wells containing compound were compared to DMSO control wells and expressed as percent of control.

HeLa cells = test: in vitro; format: cell-based
Experimental: as §1

Staphylococcus aureus = details: ref Beattie et al., 2016; cited from earlier work
[2] = tested on: Plasmodium falciparum parasites; details: antimalarial activity; ref Choomuenwai et al., 2012; cited from earlier work
mammalian cells = details: cited from earlier work
[3] = ref Davis et al., 2013; cited from earlier work
Trypanosoma brucei = details: ref Zulfiqar et al., 2017; cited from earlier work
T. cruzi = details: ref Zulfiqar et al., 2017; cited from earlier work
[4] = MOI 0.6, FITC immunostaining, read-out: Screen inhibition at 10 μM (%) FITC
[5] = MOI 0.6, mCherry detection, read-out: Screen inhibition at 10 μM (%) mCherry

Structure (SMILES)	inhibition at 10 µM [1, 4] [%]	inhibition at 10 µM [1, 5] [%]	Inhibition of Chlamydia growth ([1]; screen at 10 μM)	viability at 25 µM (in vitro) [%]	viability at 50 µM (in vitro) [%]	Reduction of HeLa cell viability (HeLa cells; 25 μM) [%]	minimum inhibitory concentration (MIC) (Staphylococcus aureus) [µM]	IC50 [2] [nM]	Toxic effects on mammalian cells (mammalian cells; ref Choomuenwai et al., 2012, Wang et al., 2015)	Toxicity to HeLa cells (authors' call) (HeLa cells; non-toxic = viability not below 70% of vehicle control at 25 μM)	In vitro antimalarial effect, active concentrations [3]	Inhibition of Trypanosoma brucei, active concentrations (Trypanosoma brucei)	Inhibition of T. cruzi, active concentrations (T. cruzi)	Toxicity in mammalian cells (mammalian cells; ref Davis et al., 2013)
COC1=CC(=O)c2c(O)c3c(c(O)c2C1=O)C[C@](C)(O)C[C@@H]3O [Compound 5, (1S,3S)-austrocortirubin]	0	13	did not inhibit Chlamydia growth	5 ± 0.5	5.5	95	100 (≈ 32 µg/mL)	1900	toxic effects	–	–	–	–	–
NCCc1c[nH]c2c1C(=O)C1=C(NC=CS1(=O)=O)C2=O [Compound 10, thiaplakortone A]	96	100	–	5 ± 0.4	5 ± 0.5	–	–	–	–	toxic	low nanomolar concentrations	low micromolar concentrations	low micromolar concentrations	moderate toxicity
